The text below walks through data of ChEMBL document CHEMBL5291721, “A preclinical secondary pharmacology resource illuminates target-adverse drug reaction associations of marketed drugs” (Nat Commun, 2023).

Among the targets are Histamine H3 receptor (Homo sapiens, UniProt Q9Y5N1); D(1A) dopamine receptor (Homo sapiens, UniProt P21728); D(3) dopamine receptor (Homo sapiens, UniProt P35462).
In assay [1] the target is Prostaglandin G/H synthase 1 (Homo sapiens, UniProt P23219). In kind it is functional.
Prostaglandin G/H synthase 1, sequence (P23219 whole entry): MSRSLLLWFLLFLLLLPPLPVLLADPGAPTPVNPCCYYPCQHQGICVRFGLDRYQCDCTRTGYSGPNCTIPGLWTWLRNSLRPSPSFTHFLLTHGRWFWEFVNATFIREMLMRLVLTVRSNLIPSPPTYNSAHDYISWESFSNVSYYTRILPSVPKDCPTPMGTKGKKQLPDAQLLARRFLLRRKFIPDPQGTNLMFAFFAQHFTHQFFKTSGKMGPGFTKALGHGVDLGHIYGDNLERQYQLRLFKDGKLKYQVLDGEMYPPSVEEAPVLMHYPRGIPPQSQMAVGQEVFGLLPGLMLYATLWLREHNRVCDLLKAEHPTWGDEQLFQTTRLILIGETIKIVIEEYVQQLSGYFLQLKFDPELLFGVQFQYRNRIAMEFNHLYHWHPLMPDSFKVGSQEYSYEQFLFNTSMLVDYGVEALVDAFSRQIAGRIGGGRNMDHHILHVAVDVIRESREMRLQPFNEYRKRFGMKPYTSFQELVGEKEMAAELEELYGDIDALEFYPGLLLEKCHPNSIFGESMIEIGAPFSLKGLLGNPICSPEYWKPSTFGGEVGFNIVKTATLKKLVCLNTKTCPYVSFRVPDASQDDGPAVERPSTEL
For the next assay, the target named is T1, Estrogen receptor (Homo sapiens, UniProt P03372).
T1 sequence (P03372 whole entry): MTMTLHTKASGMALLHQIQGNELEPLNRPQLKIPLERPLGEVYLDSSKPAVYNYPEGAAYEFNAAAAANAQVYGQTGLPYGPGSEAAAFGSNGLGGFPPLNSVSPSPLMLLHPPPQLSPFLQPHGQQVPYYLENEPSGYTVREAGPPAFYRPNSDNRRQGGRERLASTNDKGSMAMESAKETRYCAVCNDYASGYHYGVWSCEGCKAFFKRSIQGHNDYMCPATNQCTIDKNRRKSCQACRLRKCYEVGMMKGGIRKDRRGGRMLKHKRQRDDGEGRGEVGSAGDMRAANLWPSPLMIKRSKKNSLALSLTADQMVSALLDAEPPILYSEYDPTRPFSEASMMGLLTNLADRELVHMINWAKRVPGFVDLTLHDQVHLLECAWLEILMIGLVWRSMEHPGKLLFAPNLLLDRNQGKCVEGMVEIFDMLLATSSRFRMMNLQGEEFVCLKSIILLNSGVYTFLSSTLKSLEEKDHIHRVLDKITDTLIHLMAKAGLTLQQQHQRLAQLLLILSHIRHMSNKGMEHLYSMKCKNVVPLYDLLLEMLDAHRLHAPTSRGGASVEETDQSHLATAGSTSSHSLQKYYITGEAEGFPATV

Assay [2] has as its target T2, Thromboxane A2 receptor (Homo sapiens, UniProt P21731).
T2 sequence (P21731 whole entry): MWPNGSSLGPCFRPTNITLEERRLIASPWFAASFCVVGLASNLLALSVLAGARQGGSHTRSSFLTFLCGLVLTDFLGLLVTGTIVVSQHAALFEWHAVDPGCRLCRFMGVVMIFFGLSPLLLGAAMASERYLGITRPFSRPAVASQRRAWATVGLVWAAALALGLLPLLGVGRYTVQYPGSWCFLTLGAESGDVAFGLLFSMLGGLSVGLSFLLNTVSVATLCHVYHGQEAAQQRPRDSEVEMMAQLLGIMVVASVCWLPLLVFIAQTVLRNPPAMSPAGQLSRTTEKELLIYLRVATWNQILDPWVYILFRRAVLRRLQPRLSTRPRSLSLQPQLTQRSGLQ
In kind it is functional, cell-based.

In assay [3] the target is T2, Thromboxane A2 receptor. The format is functional, cell-based. This is another data set of the same source.
Assay [4] concerns the target Kappa-type opioid receptor (Homo sapiens, UniProt P41145).
The target of assay [5] is 3',5'-cyclic-AMP phosphodiesterase 4A (Homo sapiens, UniProt P27815). In kind it is functional.
3',5'-cyclic-AMP phosphodiesterase 4A, sequence (P27815 whole entry): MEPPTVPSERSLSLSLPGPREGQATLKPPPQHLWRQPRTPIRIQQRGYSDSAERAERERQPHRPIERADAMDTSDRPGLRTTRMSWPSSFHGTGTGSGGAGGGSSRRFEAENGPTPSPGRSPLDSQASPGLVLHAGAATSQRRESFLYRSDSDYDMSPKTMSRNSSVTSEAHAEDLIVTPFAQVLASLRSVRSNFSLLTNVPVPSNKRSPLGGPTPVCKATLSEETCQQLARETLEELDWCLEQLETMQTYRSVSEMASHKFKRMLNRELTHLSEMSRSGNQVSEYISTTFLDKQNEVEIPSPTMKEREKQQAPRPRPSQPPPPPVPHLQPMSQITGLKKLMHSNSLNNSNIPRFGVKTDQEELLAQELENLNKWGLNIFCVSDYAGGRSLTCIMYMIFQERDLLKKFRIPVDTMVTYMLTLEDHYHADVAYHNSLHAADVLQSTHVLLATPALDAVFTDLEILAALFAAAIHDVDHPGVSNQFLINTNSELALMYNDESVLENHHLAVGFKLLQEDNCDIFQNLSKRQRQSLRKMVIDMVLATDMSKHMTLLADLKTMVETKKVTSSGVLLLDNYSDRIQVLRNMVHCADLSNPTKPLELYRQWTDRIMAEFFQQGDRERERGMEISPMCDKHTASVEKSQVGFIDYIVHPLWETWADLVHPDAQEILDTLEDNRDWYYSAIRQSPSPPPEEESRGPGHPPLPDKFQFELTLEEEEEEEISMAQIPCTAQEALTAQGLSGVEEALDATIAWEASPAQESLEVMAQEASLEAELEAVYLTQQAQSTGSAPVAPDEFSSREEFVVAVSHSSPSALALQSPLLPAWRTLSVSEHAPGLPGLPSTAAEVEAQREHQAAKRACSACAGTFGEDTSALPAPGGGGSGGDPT
The target of another assay is T3, B2 bradykinin receptor (Homo sapiens, UniProt P30411).
T3 sequence (P30411 whole entry): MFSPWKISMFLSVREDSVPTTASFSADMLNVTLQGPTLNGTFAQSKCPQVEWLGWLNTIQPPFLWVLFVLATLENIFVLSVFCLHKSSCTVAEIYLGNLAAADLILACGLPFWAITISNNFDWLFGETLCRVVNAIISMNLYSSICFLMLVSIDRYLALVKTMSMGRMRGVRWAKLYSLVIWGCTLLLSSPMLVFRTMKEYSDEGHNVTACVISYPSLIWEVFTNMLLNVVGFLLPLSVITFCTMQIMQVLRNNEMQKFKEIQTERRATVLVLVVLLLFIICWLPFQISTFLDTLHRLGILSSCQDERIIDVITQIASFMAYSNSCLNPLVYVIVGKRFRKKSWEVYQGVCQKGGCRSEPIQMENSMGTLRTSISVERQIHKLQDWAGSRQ

Assay [6] deals with Sodium-dependent serotonin transporter (Homo sapiens, UniProt P31645).
Sodium-dependent serotonin transporter, sequence (P31645 whole entry): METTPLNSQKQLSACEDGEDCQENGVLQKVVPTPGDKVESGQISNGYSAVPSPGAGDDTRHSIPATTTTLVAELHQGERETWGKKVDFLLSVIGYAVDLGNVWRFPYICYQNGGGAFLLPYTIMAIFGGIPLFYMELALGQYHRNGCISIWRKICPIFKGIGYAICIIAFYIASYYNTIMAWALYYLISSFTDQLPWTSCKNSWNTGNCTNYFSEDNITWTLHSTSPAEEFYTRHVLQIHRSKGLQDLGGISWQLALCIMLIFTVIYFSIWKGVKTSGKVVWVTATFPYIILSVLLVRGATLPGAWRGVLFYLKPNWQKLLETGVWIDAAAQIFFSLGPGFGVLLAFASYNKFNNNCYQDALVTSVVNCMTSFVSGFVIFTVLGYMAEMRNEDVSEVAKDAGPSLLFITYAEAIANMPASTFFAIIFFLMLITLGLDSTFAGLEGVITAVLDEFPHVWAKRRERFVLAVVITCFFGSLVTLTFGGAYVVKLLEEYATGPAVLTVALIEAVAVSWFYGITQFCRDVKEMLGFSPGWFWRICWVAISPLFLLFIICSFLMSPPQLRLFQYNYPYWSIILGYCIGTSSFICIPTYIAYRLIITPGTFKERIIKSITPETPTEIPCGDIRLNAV
Assay [7] concerns the target Glutamate receptor ionotropic, NMDA 1 (Rattus norvegicus, UniProt P35439).
Assay [8] addresses T4, Alpha-2A adrenergic receptor (Homo sapiens, UniProt P08913).
T4 sequence (P08913 whole entry): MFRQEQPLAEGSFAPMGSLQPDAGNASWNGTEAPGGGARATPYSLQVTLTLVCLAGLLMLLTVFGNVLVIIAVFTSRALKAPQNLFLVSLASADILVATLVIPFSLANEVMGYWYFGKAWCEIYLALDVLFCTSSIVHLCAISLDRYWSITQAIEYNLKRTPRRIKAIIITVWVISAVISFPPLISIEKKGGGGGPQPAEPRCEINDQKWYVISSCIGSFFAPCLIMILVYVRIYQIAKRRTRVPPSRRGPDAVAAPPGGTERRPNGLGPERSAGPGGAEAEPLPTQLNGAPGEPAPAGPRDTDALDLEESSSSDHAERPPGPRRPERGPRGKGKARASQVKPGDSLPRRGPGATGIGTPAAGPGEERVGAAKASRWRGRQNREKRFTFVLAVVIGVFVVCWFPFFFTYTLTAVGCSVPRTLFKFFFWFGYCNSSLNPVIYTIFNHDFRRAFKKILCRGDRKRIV

Assay [9] addresses T5, Alpha-2B adrenergic receptor (Homo sapiens, UniProt P18089).
T5 sequence (P18089 whole entry): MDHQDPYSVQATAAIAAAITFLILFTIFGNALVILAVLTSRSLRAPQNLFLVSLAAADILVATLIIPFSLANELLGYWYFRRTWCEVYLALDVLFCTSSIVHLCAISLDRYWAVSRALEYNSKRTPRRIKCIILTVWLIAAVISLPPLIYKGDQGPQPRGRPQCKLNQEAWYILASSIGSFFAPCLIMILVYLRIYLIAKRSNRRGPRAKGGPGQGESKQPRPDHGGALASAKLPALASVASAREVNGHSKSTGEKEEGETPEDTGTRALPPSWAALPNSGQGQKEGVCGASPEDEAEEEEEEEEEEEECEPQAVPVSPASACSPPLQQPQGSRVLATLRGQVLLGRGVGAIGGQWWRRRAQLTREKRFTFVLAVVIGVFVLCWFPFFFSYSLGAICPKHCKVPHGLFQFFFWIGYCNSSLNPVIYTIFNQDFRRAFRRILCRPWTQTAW

A value given as a limit tells only on which side of the number the result lay.
Also: assay procedure not described here.

Histamine H3 receptor, sequence (Q9Y5N1 whole entry): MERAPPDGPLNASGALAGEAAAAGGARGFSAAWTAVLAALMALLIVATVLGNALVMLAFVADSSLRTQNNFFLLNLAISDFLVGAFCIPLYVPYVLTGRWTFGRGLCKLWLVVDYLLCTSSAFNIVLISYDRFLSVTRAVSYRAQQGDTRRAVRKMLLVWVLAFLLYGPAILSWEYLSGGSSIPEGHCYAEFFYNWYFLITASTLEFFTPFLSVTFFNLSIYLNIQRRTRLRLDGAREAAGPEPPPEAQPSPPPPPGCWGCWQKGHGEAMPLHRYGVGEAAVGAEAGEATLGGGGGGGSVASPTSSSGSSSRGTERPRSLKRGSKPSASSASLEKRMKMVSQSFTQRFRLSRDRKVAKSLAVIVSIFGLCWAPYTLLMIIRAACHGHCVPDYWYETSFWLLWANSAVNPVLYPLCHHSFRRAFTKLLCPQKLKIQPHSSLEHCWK
D(1A) dopamine receptor, sequence (P21728 whole entry): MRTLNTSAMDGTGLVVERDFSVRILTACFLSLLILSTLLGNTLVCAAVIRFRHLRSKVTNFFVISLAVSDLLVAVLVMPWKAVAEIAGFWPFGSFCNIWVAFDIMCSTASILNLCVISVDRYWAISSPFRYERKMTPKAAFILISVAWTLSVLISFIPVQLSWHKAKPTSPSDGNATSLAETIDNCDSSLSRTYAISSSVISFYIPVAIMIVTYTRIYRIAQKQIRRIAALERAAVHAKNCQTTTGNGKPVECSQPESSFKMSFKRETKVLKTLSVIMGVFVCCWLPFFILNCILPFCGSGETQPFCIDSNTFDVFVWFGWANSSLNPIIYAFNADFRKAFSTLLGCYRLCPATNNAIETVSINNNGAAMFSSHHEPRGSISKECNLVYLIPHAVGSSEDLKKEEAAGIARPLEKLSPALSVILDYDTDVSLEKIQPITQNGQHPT
Kappa-type opioid receptor, sequence (P41145 whole entry): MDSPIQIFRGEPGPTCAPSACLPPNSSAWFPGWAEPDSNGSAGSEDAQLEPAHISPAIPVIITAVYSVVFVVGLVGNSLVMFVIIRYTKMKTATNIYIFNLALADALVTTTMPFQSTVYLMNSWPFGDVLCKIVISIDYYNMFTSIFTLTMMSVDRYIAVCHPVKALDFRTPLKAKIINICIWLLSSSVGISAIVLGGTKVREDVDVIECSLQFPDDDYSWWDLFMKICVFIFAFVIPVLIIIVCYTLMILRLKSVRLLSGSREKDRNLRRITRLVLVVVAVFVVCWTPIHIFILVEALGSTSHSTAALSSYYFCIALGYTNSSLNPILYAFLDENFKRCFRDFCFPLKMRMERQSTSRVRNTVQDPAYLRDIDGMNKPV
D(3) dopamine receptor, sequence (P35462 whole entry): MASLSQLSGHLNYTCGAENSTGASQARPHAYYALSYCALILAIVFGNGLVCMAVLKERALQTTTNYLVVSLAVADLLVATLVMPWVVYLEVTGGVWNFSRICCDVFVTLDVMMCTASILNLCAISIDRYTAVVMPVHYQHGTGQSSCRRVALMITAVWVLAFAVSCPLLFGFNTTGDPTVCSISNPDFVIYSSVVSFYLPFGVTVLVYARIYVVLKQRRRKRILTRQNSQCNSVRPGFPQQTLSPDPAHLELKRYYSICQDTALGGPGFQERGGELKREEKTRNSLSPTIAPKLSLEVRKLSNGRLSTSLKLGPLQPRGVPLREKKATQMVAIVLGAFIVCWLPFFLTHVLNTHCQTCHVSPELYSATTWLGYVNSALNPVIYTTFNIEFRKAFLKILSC

The AC50 is the concentration giving half of the maximal activity seen. Read a low AC50 as activity at low concentration. In the case of `CC(C(=O)O)c1ccc(N2CC=CC2)c(Cl)c1` (stereo not given) [PIRPROFEN], the AC50 on Histamine H3 receptor was above 30 µM; in assay [1], 0.0325 µM; on D(1A) dopamine receptor it was above 30 µM; on Estrogen receptor, above 30 µM; on Thromboxane A2 receptor [2], above 30 µM; at Thromboxane A2 receptor [3], above 30 µM. Also, the AC50 in [4] was above 10 µM; in [5], above 30 µM; on B2 bradykinin receptor, above 30 µM; at D(3) dopamine receptor, above 30 µM; in assay [6] it was above 10 µM; in assay [7] it was above 10 µM. In addition, the figures for the AC50 in assay [8] and in assay [9] were above 30 µM and above 10 µM, respectively.
For the compound `COc1cc(Nc2c(C#N)cnc3cc(OCCCN4CCN(C)CC4)c(OC)cc23)c(Cl)cc1Cl` [BOSUTINIB], the AC50 in assay [1] was above 30 µM; at D(1A) dopamine receptor it was 4.64 µM; on Estrogen receptor, above 30 µM; at Thromboxane A2 receptor [2], above 3 µM; on Thromboxane A2 receptor [3], above 10 µM; in [4] it was 10 µM. For the same compound, the half-maximal activity concentration (AC50) was above 30 µM in [5]; above 30 µM on B2 bradykinin receptor; 3.01 µM on D(3) dopamine receptor; 11 µM in [6]; above 10 µM in assay [7]; 7.58 µM in assay [8]. Besides, in assay [9], the AC50 was above 10 µM.
As to `CN(CCOc1ccc(NS(C)(=O)=O)cc1)CCc1ccc(NS(C)(=O)=O)cc1` [DOFETILIDE], the concentration at half-maximal activity (AC50) (on Histamine H3 receptor; in assay [1]; on D(1A) dopamine receptor; at Estrogen receptor; on Thromboxane A2 receptor [2]; at Thromboxane A2 receptor [3]) was above 30 µM each time. Moreover, the AC50 is above 10 µM in [4]; above 30 µM in [5]; above 30 µM at B2 bradykinin receptor; 3.36 µM at D(3) dopamine receptor; above 10 µM in assay [6]; above 10 µM in assay [7]. Besides, the AC50 in [8] was above 30 µM; in assay [9] it was above 10 µM.
In the case of `OCCN1CCN(CCCN2c3ccccc3C=Cc3ccccc32)CC1` [OPIPRAMOL], the AC50 is 19 µM at Histamine H3 receptor; above 30 µM in assay [1]; 1.29 µM on D(1A) dopamine receptor; above 30 µM at Estrogen receptor; above 30 µM on Thromboxane A2 receptor [2]; above 30 µM on Thromboxane A2 receptor [3]. Moreover, the AC50 in assay [4] was above 30 µM; in assay [5], above 30 µM; at B2 bradykinin receptor, above 30 µM; on D(3) dopamine receptor, 0.42 µM; in assay [6], above 30 µM; in [7], above 30 µM. Moreover, the AC50 in assay [8] was determined as 9.6 µM; in [9], 10 µM.
Regarding `COc1cc2c(cc1OC)C(=O)C(CC1CCN(Cc3ccccc3)CC1)C2` (stereo not given) [DONEPEZIL], the AC50 is 5.2 µM on Histamine H3 receptor; above 30 µM in assay [1]; above 30 µM on D(1A) dopamine receptor; above 30 µM on Estrogen receptor; above 30 µM on Thromboxane A2 receptor [2]; above 30 µM on Thromboxane A2 receptor [3]. Besides, the AC50 is above 10 µM in assay [4]; above 30 µM in [5]; above 30 µM at B2 bradykinin receptor; above 30 µM in assay [6]; 15.9 µM in assay [8]; above 10 µM in [9].
For `O=C(NC[C@H]1CN(c2ccc(N3CCOCC3=O)cc2)C(=O)O1)c1ccc(Cl)s1` [RIVAROXABAN], the AC50 is above 30 µM at Histamine H3 receptor; above 30 µM in assay [1]; above 30 µM at D(1A) dopamine receptor; above 3 µM on Thromboxane A2 receptor [2]; above 30 µM on Thromboxane A2 receptor [3]; above 30 µM in [4]. Moreover, the AC50 (in assay [5]; on D(3) dopamine receptor; in assay [6]; in assay [7]; in assay [8]; in [9]) was above 30 µM throughout.
Take `CC(C)NCC(O)COc1ccc(COCCOC(C)C)cc1` (stereo not given) [BISOPROLOL]: the AC50 was above 30 µM at Estrogen receptor; above 10 µM in [4]; above 30 µM on B2 bradykinin receptor; above 10 µM in assay [6]; above 10 µM in [7]; above 10 µM in [9].
